# Experimental data reported in PubChem BioAssay (NCI).
#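 How tested: cells in 96-well plates exposed to compound for 48 hours at five concentrations. TGI is the concentration that stops growth completely.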
# Columns and labels:
# Assay in all cases: NCI anticancer screen, dose series, 48 h
# SW-620 colon = test system: SW-620 colon
# NCI/ADR-RES ovarian = test system: NCI/ADR-RES ovarian
# OVCAR-5 ovarian = test system: OVCAR-5 ovarian
# NCI-H226 lung = test system: NCI-H226 lung
# SF-268 CNS = test system: SF-268 CNS
# NCI-H522 lung = test system: NCI-H522 lung
# A498 renal = test system: A498 renal
# SN12C renal = test system: SN12C renal
# HCC-2998 colon = test system: HCC-2998 colon
# T-47D breast = test system: T-47D breast
# HOP-62 NSCLC = test system: HOP-62 NSCLC
# PC-3 prostate = test system: PC-3 prostate
# HT29 colon = test system: HT29 colon
# MDA-N = test system: MDA-N
Structure (SMILES),TGI (SW-620 colon) [µM],TGI (NCI/ADR-RES ovarian) [µM],TGI (OVCAR-5 ovarian) [µM],TGI (NCI-H226 lung) [µM],TGI (SF-268 CNS) [µM],TGI (NCI-H522 lung) [µM],TGI (A498 renal) [µM],TGI (SN12C renal) [µM],TGI (HCC-2998 colon) [µM],TGI (T-47D breast) [µM],TGI (HOP-62 NSCLC) [µM],TGI (PC-3 prostate) [µM],TGI (HT29 colon) [µM],TGI (MDA-N) [µM]
CC1(C)CCCCCC(C)(CCCCCCCCCCCO)C1=O (stereo unspecified),32.9,27,31.2,32.3,30.2,31.1,33,29.9,39.9,29.8,31.6,30,24.1,32.3
COc1cc(S(=O)(=O)Nc2ccc(-c3csc(N4C(=O)C(C)SC4c4ccccc4O)n3)cc2)ccc1Cl (stereo unspecified),> 100,> 100,> 100,> 100,49.9,37,> 100,> 100,–,31,> 100,> 100,> 100,> 100
Cc1nc(N)c(N2CCN(Cc3ccccc3)CC2)c(=O)[nH]1,> 100,> 100,> 100,> 100,> 100,> 100,> 100,> 100,> 100,> 100,> 100,> 100,> 100,> 100
NC(N)=NS(=O)(=O)c1ccc(Nc2c3ccccc3nc3c(C(=O)NC(CO)(CO)CO)cccc23)cc1,> 100,> 100,65.4,–,> 100,30.9,72.6,> 100,> 100,> 100,87.4,> 100,61.1,> 100
O=C1c2ccccc2C(=O)c2c1oc(=O)c1ccccc21,> 25,10.2,14.4,21.2,19.7,9.73,> 25,7.91,6.96,13.9,24.6,19.2,13,5.7
O=c1[nH]c(=O)n(C2OC(CO)C(O)C2O)cc1OCCc1ccccc1 (stereo unspecified),> 100,> 100,> 100,> 100,> 100,> 100,> 100,> 100,> 100,> 100,> 100,> 100,> 100,> 100
Fc1ccc(NCn2nc(COc3ccccc3Cl)n(/N=C/c3ccc(-c4ccc(Cl)cc4Cl)o3)c2=S)cc1Cl,> 100,> 100,> 100,> 100,> 100,> 100,41.6,–,–,> 100,> 100,> 100,> 100,> 100
Cn1c(=O)c2nc3nnc(C#N)c(N)n3c2n(C)c1=O,–,> 100,> 100,> 100,> 100,> 100,> 100,> 100,> 100,> 100,> 100,> 100,> 100,> 100
COP(=O)(OC)C(O)/C=C/c1ccco1 (stereo unspecified),> 100,> 100,> 100,> 100,> 100,> 100,> 100,> 100,–,> 100,> 100,> 100,> 100,> 100
Cc1nn(-c2ccccc2)c2c1C(c1cc3ccccc3nc1Cl)NC(=S)N2 (stereo unspecified),98.4,> 100,> 100,> 100,> 100,69.5,> 100,> 100,–,> 100,> 100,> 100,> 100,> 100
O=C(N/N=C/C=C/c1ccc([N+](=O)[O-])o1)c1ccc(Br)s1,71.6,57.4,59.7,47.3,98.4,–,> 100,70.5,–,65.5,> 100,49.7,34.2,56.7
O=c1oc2cccnc2n1CCN1CCN(c2ccc(Oc3ccccc3)cc2)CC1,> 100,> 100,> 100,–,> 100,> 100,> 100,–,> 100,> 100,> 100,> 100,> 100,> 100
Cc1cc(N(CCC#N)CCC#N)ccc1/C(N=Nc1ccccc1)=N\NC(=O)c1ccccc1,–,75.5,> 100,> 100,> 100,35.3,93.7,> 100,> 100,49,> 100,> 100,35.5,> 100
NC1=NN(c2ccccc2)C2(c3ccncc3C(=O)O)C1C(N)=NN2c1ccccc1 (stereo unspecified),> 100,> 100,> 100,> 100,> 100,> 100,> 100,> 100,> 100,> 100,–,> 100,> 100,> 100
COc1ccc(C(=O)/C=C/c2ccc(OCC(=O)O)cc2)cc1,> 100,> 100,> 100,–,> 100,> 100,> 100,> 100,> 100,> 100,> 100,> 100,> 100,> 100
CC(=O)Nc1ccc(S(=O)(=O)[N-]C2C(=O)c3ccccc3C(=O)C2[n+]2ccccc2)cc1 (stereo unspecified),32.9,38.8,32.3,> 100,35.5,92.7,–,> 100,43.6,> 100,35.3,46.1,> 100,33
O=C1NC(N/N=C/c2ccccc2)=N/C1=C\c1cccs1,> 47.5,37.6,70.8,25.8,30.3,5.61,28,46.4,–,> 100,37.8,26.7,> 55.3,> 25.2
COC(=O)c1cc(-c2ccc(-c3ccc(O)cc3)cc2)cc(-c2ccc(-c3ccc(O)cc3)cc2)c1,21.9,30.1,29.1,32.6,17.8,8.66,34.7,27,33,33.8,27.7,31,–,23
Cc1cc(C)nc(NS(=O)(=O)c2ccc(NNC(=O)c3cccc4c(NNc5ccc(S(=O)(=O)Nc6nc(C)cc(C)n6)cc5)c5ccccc5nc34)cc2)n1,48.3,> 100,40.3,55.9,61,40.8,–,> 100,37.7,78.9,85.9,51,37.8,43.1
O=C1/C(=C/c2ccc(Cl)cc2)N=C(c2ccccc2)N1C1Nc2cc3c(cc2S1)NC(N1C(=O)/C(=C/c2ccc(Cl)cc2)N=C1c1ccccc1)S3 (stereo unspecified),> 100,> 100,> 100,> 100,> 100,63.3,> 100,–,> 100,> 100,> 100,> 100,> 100,> 100
O=c1c[n+](-c2ccccc2)[nH]o1,> 100,> 100,> 100,–,> 100,–,> 100,> 100,> 100,> 100,> 100,> 100,> 100,> 100
C=CCOC(=O)CCCCCCCCCCCCCCCOC(=O)c1c(CCC[C@@H](C)O[Si](C)(C)C(C)(C)C)nc(=O)n2c1CC[C@H]2CC1(CC/C=C\[C@H](CC)O[Si](C(C)C)(C(C)C)C(C)C)OCCO1,–,> 100,> 100,> 100,> 100,> 100,> 100,> 100,> 100,> 100,> 100,> 100,–,> 100
COc1cc(C=Nc2ccc(S(N)(=O)=O)cc2)cc(OC)c1,–,> 50,> 50,> 50,> 50,–,> 50,> 50,> 50,> 50,> 50,> 50,> 50,> 50
CC1C2(C)OC(=N)C(C#N)(C(c3ccco3)O2)C1(C#N)C#N (stereo unspecified),40.4,> 100,83.6,> 100,> 100,–,> 100,30.4,55.5,45.9,–,> 100,> 100,43
c1cc2cc(c1)CN1CCNCCN(CCNCC1)Cc1cccc(c1)CN1CCNCCN(CCNCC1)C2,> 100,> 100,> 100,–,> 100,–,> 100,> 100,> 100,> 100,> 100,> 100,> 100,> 100
